Measured values: patent US8969325B2, “TRPV1 antagonists” (AbbVie Inc., priority 2011, dated 2015)

Assays:
[1] = target: T1, human TRPV1 (Homo sapiens (Human), UniProt Q8NER1); experiment: Capsaicin Activation Assay (intracellular Ca2+, FLIPR); assay type: cell-based; conditions: recombinant HEK293 cells expressing hTRPV1, 50 nM capsaicin
Summary of the method: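 Stably transfected HEK293 cells expressing human TRPV1 cDNA, plated the day before in poly-D-lysine plates. Compounds serially diluted from 10 mM DMSO stocks; intracellular Ca2+ fluorescence read on FLIPR at 1 to 5 second intervals.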

[2] = target: T1, human TRPV1; experiment: Acid Activation Assay (pH 5.0, intracellular Ca2+, FLIPR); assay type: cell-based; conditions: percentage of the maximal pH 5.0-induced response remaining; recombinant HEK293 hTRPV1 cells; maximum concentration tested 37.5 μM
Summary of the method: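 HEK293 cells stably expressing recombinant hTRPV1, loaded with Calcium-4 dye 90-120 min at 25° C. Compounds added over a 12-point half-log range (top 37.5 μM), then pH 5.0 DPBS/MES challenge after 3 min; FLIPR peak fluorescence over baseline given as % of maximal pH 5.0 response.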

T1 sequence (Q8NER1 whole entry): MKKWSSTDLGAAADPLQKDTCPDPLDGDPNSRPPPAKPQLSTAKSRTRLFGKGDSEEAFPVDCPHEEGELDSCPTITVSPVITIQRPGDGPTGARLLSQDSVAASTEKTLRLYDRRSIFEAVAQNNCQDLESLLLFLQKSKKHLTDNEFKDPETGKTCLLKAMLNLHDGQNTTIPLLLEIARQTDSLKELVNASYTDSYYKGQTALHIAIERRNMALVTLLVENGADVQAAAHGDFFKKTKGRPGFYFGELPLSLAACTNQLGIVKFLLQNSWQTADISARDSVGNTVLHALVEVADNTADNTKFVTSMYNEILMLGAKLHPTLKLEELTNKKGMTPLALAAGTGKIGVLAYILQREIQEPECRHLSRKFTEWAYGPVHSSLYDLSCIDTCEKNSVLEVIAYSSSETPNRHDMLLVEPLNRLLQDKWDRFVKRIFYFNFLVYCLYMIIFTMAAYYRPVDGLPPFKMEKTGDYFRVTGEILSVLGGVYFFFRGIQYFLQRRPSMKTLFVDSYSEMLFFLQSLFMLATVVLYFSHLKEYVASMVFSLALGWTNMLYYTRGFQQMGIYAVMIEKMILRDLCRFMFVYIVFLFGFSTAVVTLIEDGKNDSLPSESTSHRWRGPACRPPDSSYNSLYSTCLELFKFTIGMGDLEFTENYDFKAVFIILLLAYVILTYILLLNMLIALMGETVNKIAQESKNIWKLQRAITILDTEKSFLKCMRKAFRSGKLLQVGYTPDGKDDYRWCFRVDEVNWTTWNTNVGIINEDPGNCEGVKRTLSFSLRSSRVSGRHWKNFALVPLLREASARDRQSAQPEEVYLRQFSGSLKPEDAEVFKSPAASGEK

In the case of `O=C1CCc2ccc(NC(=O)N[C@H]3CC(CF)(CF)Oc4cc(Cl)ccc43)cc2N1` [Example 217, 1-[(4S)-7-chloro-2,2-bis(fluoromethyl)-3,4-dihydro-2H-chromen-4-yl]-3-(2-oxo-1,2,3,4-tetrahydroquinolin-7-yl)urea], the IC50 [1] is reported as 430 nM and the “human TRPV1 H^+ (max % remain)” value [2] is reported as 50%.

With `Cn1c(=O)ccc2c(NC(=O)N[C@@H]3C[C@](C)(CF)Oc4cc(Cl)ccc43)cccc21` [Example 40, 1-[(2R,4R)-7-chloro-2-(fluoromethyl)-2-methyl-3,4-dihydro-2H-chromen-4-yl]-3-(1-methyl-2-oxo-1,2-dihydroquinolin-5-yl)urea] the IC50 [1] was 22 nM and the “human TRPV1 H^+ (max % remain)” value [2] was 38%.

`CN1Cc2ccc(NC(=O)N[C@@H]3CC4(CCC4)Oc4ccc(F)cc43)cc2NC1=O` [Example 188, 1-[(4R)-6-fluoro-3,4-dihydrospiro[chromene-2,1′-cyclobutan]-4-yl]-3-(3-methyl-2-oxo-1,2,3,4-tetrahydroquinazolin-7-yl)urea] was tested, and the IC50 [1] was 290 nM and the “human TRPV1 H^+ (max % remain)” value [2] was 46%.

`CN1Cc2c(NC(=O)N[C@@H]3CC(CF)(CF)Oc4cc(Cl)ccc43)cccc2N(C)C1=O` [Example 167, 1-[(4R)-7-chloro-2,2-bis(fluoromethyl)-3,4-dihydro-2H-chromen-4-yl]-3-(1,3-dimethyl-2-oxo-1,2,3,4-tetrahydroquinazolin-5-yl)urea] was tested, and the IC50 [1] was 5 nM and the “human TRPV1 H^+ (max % remain)” value [2] was 5%.

With `Cn1c(=O)ccc2c(NC(=O)N[C@@H]3CC(C)(C)Oc4cc(Cl)ccc43)cccc21` [Example 23, 1-[(4R)-7-chloro-2,2-dimethyl-3,4-dihydro-2H-chromen-4-yl]-3-(1-methyl-2-oxo-1,2-dihydroquinolin-5-yl)urea] the IC50 [1] was 16 nM and the “human TRPV1 H^+ (max % remain)” value [2] was 50%.

In the case of `COCC1(COC)C[C@@H](NC(=O)Nc2ccc3c(c2)NC(=O)N(C)C3)c2cc(F)ccc2O1` [Example 196, 1-[(4R)-6-fluoro-2,2-bis(methoxymethyl)-3,4-dihydro-2H-chromen-4-yl]-3-(3-methyl-2-oxo-1,2,3,4-tetrahydroquinazolin-7-yl)urea], the IC50 [1] is reported as 2700 nM and the “human TRPV1 H^+ (max % remain)” value [2] is reported as 53%.

In the case of `O=C1CCc2ccc(NC(=O)N[C@H]3CCOc4cc(OC(F)(F)F)ccc43)cc2N1` [Example 234, 1-(2-oxo-1,2,3,4-tetrahydroquinolin-7-yl)-3-[(4S)-7-(trifluoromethoxy)-3,4-dihydro-2H-chromen-4-yl]urea], the IC50 [1] is reported as 90 nM and the “human TRPV1 H^+ (max % remain)” value [2] is reported as 27%.

For `O=C1CCc2ccc(NC(=O)N[C@@H]3CC(CF)(CF)Oc4ccc(F)cc43)cc2N1` [Example 213, 1-[(4R)-6-fluoro-2,2-bis(fluoromethyl)-3,4-dihydro-2H-chromen-4-yl]-3-(2-oxo-1,2,3,4-tetrahydroquinolin-7-yl)urea], the IC50 [1] was 170 nM and the “human TRPV1 H^+ (max % remain)” value [2] was 42%.

In the case of `CN1C(=O)CCc2ccc(NC(=O)N[C@@H]3C[C@@](C)(CF)Oc4cc(Cl)ccc43)cc21` [Example 291, 1-[(2S,4R)-7-chloro-2-(fluoromethyl)-2-methyl-3,4-dihydro-2H-chromen-4-yl]-3-(1-methyl-2-oxo-1,2,3,4-tetrahydroquinolin-7-yl)urea], the IC50 [1] is reported as 26 nM and the “human TRPV1 H^+ (max % remain)” value [2] is reported as 71%.

In the case of `CCC1(CC)C[C@@H](NC(=O)Nc2ccc3c(c2)NC(=O)CO3)c2cccc(F)c2O1` [Example 101, 1-[(4R)-2,2-diethyl-8-fluoro-3,4-dihydro-2H-chromen-4-yl]-3-(3-oxo-3,4-dihydro-2H-1,4-benzoxazin-6-yl)urea], the IC50 [1] is reported as 95 nM and the “human TRPV1 H^+ (max % remain)” value [2] is reported as 105%.

`CCC1(CC)C[C@@H](NC(=O)Nc2ccc3c(c2)N(C)C(=O)CC3)c2ccc(Cl)cc2O1` [Example 262, 1-[(4R)-7-chloro-2,2-diethyl-3,4-dihydro-2H-chromen-4-yl]-3-(1-methyl-2-oxo-1,2,3,4-tetrahydroquinolin-7-yl)urea] was tested, and the IC50 [1] was 460 nM and the “human TRPV1 H^+ (max % remain)” value [2] was 37%.

In the case of `CN1Cc2ccc(NC(=O)N[C@@H]3CC(CF)(CF)Oc4c3ccc(Cl)c4F)cc2NC1=O` [Example 192, 1-[(4R)-7-chloro-8-fluoro-2,2-bis(fluoromethyl)-3,4-dihydro-2H-chromen-4-yl]-3-(3-methyl-2-oxo-1,2,3,4-tetrahydroquinazolin-7-yl)urea], the IC50 [1] is reported as 280 nM and the “human TRPV1 H^+ (max % remain)” value [2] is reported as 53%.

With `CC1(C)C[C@@H](NC(=O)Nc2ccc3c(c2)NC(=O)N(CCO)C3)c2ccc(F)cc2O1` [Example 43, 1-[(4R)-7-fluoro-2,2-dimethyl-3,4-dihydro-2H-chromen-4-yl]-3-[3-(2-hydroxyethyl)-2-oxo-1,2,3,4-tetrahydroquinazolin-7-yl]urea] the IC50 [1] was 94 nM and the “human TRPV1 H^+ (max % remain)” value [2] was 8%.

With `CN1C(=O)NCc2c(NC(=O)N[C@@H]3CCOc4cc(F)ccc43)cccc21` [Example 159, 1-[(4R)-7-fluoro-3,4-dihydro-2H-chromen-4-yl]-3-(1-methyl-2-oxo-1,2,3,4-tetrahydroquinazolin-5-yl)urea] the IC50 [1] was 600 nM and the “human TRPV1 H^+ (max % remain)” value [2] was 21%.

For `O=C(Nc1ccc2c(c1)NC(=O)N(CCO)C2)N[C@@H]1CCOc2ccc(F)cc21` [Example 52, 1-[(4R)-6-fluoro-3,4-dihydro-2H-chromen-4-yl]-3-[3-(2-hydroxyethyl)-2-oxo-1,2,3,4-tetrahydroquinazolin-7-yl]urea], the IC50 [1] was 950 nM and the “human TRPV1 H^+ (max % remain)” value [2] was 32%.

With `C[C@@]1(C(F)F)C[C@@H](NC(=O)Nc2ccc3c(c2)NC(=O)CC3)c2ccc(Cl)cc2O1` [Example 212, 1-[(2S,4R)-7-chloro-2-(difluoromethyl)-2-methyl-3,4-dihydro-2H-chromen-4-yl]-3-(2-oxo-1,2,3,4-tetrahydroquinolin-7-yl)urea] the IC50 [1] was 61 nM and the “human TRPV1 H^+ (max % remain)” value [2] was 34%.

In the case of `CC1(C)C[C@@H](NC(=O)Nc2ccc3c(c2)NC(=O)CO3)c2ccc(F)c(F)c2O1` [Example 117, 1-[(4R)-7,8-difluoro-2,2-dimethyl-3,4-dihydro-2H-chromen-4-yl]-3-(3-oxo-3,4-dihydro-2H-1,4-benzoxazin-6-yl)urea], the IC50 [1] is reported as 120 nM and the “human TRPV1 H^+ (max % remain)” value [2] is reported as 99%.

In the case of `CN1Cc2ccc(NC(=O)N[C@@H]3CC(CF)(CF)Oc4ccc(F)cc43)cc2NC1=O` [Example 186, 1-[(4R)-6-fluoro-2,2-bis(fluoromethyl)-3,4-dihydro-2H-chromen-4-yl]-3-(3-methyl-2-oxo-1,2,3,4-tetrahydroquinazolin-7-yl)urea], the IC50 [1] is reported as 1500 nM and the “human TRPV1 H^+ (max % remain)” value [2] is reported as 58%.

In the case of `CC1(C)C[C@@H](NC(=O)Nc2ccc3c(c2)NC(=O)N(CCO)C3)c2cccc(F)c2O1` [Example 42, 1-[(4R)-8-fluoro-2,2-dimethyl-3,4-dihydro-2H-chromen-4-yl]-3-[3-(2-hydroxyethyl)-2-oxo-1,2,3,4-tetrahydroquinazolin-7-yl]urea], the IC50 [1] is reported as 510 nM and the “human TRPV1 H^+ (max % remain)” value [2] is reported as 8%.

In the case of `CN1C(=O)CCc2ccc(NC(=O)N[C@@H]3CCc4cc(Cl)ccc43)cc21` [Example 283, 1-[(1R)-5-chloro-2,3-dihydro-1H-inden-1-yl]-3-(1-methyl-2-oxo-1,2,3,4-tetrahydroquinolin-7-yl)urea], the IC50 [1] is reported as 4800 nM and the “human TRPV1 H^+ (max % remain)” value [2] is reported as 84%.

For `CN1C(=O)CCc2ccc(NC(=O)N[C@@H]3CC(C)(C)Oc4c(F)cccc43)cc21` [Example 257, 1-[(4R)-8-fluoro-2,2-dimethyl-3,4-dihydro-2H-chromen-4-yl]-3-(1-methyl-2-oxo-1,2,3,4-tetrahydroquinolin-7-yl)urea], the IC50 [1] was 21 nM and the “human TRPV1 H^+ (max % remain)” value [2] was 72%.

For `O=C(Nc1ccc2c(c1)NC(=O)N(CCO)C2)N[C@@H]1CC(CF)(CF)Oc2cc(Cl)ccc21` [Example 316, 1-[(4R)-7-chloro-2,2-bis(fluoromethyl)-3,4-dihydro-2H-chromen-4-yl]-3-[3-(2-hydroxyethyl)-2-oxo-1,2,3,4-tetrahydroquinazolin-7-yl]urea], the IC50 [1] was 1900 nM and the “human TRPV1 H^+ (max % remain)” value [2] was 20%.

`CCCC1(CCC)C[C@@H](NC(=O)Nc2ccc3c(c2)N(C)C(=O)CC3)c2cc(F)ccc2O1` [Example 266, 1-[(4R)-6-fluoro-2,2-dipropyl-3,4-dihydro-2H-chromen-4-yl]-3-(1-methyl-2-oxo-1,2,3,4-tetrahydroquinolin-7-yl)urea] was tested, and the IC50 [1] was 65 nM and the “human TRPV1 H^+ (max % remain)” value [2] was 54%.

With `C[C@H]1Oc2c(NC(=O)N[C@@H]3CC(CF)(CF)Oc4cc(Cl)ccc43)cccc2NC1=O` [Example 134, 1-[(4R)-7-chloro-2,2-bis(fluoromethyl)-3,4-dihydro-2H-chromen-4-yl]-3-[(2R)-2-methyl-3-oxo-3,4-dihydro-2H-1,4-benzoxazin-8-yl]urea] the IC50 [1] was 8 nM and the “human TRPV1 H^+ (max % remain)” value [2] was 0%.

For `CN1C(=O)NCc2c(NC(=O)N[C@@H]3CC(CF)(CF)Oc4c(F)cc(F)cc43)cccc21` [Example 153, 1-[(4R)-6,8-difluoro-2,2-bis(fluoromethyl)-3,4-dihydro-2H-chromen-4-yl]-3-(1-methyl-2-oxo-1,2,3,4-tetrahydroquinazolin-5-yl)urea], the IC50 [1] was 170 nM and the “human TRPV1 H^+ (max % remain)” value [2] was 23%.

For `CCC1(CC)C[C@@H](NC(=O)Nc2cccc3c2ccc(=O)n3C)c2ccc(C(F)(F)F)cc2O1` [Example 69, 1-[(4R)-2,2-diethyl-7-(trifluoromethyl)-3,4-dihydro-2H-chromen-4-yl]-3-(1-methyl-2-oxo-1,2-dihydroquinolin-5-yl)urea], the IC50 [1] was 55 nM and the “human TRPV1 H^+ (max % remain)” value [2] was 13%.

For `O=C1CCc2ccc(NC(=O)N[C@@H]3CCOc4c3cccc4C(F)(F)F)cc2N1` [Example 238, 1-(2-oxo-1,2,3,4-tetrahydroquinolin-7-yl)-3-[(4R)-8-(trifluoromethyl)-3,4-dihydro-2H-chromen-4-yl]urea], the IC50 [1] was 510 nM and the “human TRPV1 H^+ (max % remain)” value [2] was 47%.
